# Settings: buffer; pH 7.4; 6.0 h; 150.0 µM
row,SMILES,solubility kinetic [µg/mL]
1,Cc1ccccc1C(=O)N1CCc2cc(-c3ccnc(NC(=O)Cc4ccccc4)n3)ccc21,6.19
2,CCc1cc(Cl)c(OC)c(C(=O)NC[C@@H]2CCCN2CC)c1O.Cl,27.3
3,CC(C)CNc1ccnc(NCc2csc(-c3ccccc3)n2)n1,35.9
4,NC(=O)C1CCN(c2nnc(-c3ccc4c(c3)OCCCO4)s2)CC1,9.84
5,COc1ccc(C2c3c(ncn(CCN4CCOCC4)c3=N)Oc3ccc4ccccc4c32)cc1OC (stereo not given),4.21
6,CC(=O)c1c(C)[nH]c(C(=O)Nc2cccc(S(=O)(=O)N3CCCCC3)c2)c1C,4.57
7,Fc1cc(Nc2nc(-c3ccncc3)nc3ccccc23)ccc1-c1cncnc1,< 1
8,CCOC(=O)N1CCN(Cc2nc3c(c(=O)n(C)c(=O)n3C)n2CCC(C)C)CC1,> 62
9,CCCNc1oc(-c2cccc3ccccc23)nc1C#N,< 1
10,Cc1ccc(-n2nc3c(=O)n(CCCC(=O)NC(C)c4ccccc4)nc(C)c3c2C)cc1 (stereo not given),4.59
11,Cc1ccccc1-c1nc(CN2CCC(C(=O)NCCCN3CCOCC3)CC2)c(C)o1,> 65
12,CCCCOc1ccccc1C(=O)Nc1ccccc1C(=O)Nc1cccc(S(=O)(=O)C(F)(F)F)c1,< 1
13,Brc1ccc(-c2csc(N3CCNCC3)n2)cc1,6.59
14,Cc1cccc(S(=O)(=O)c2cn(Cc3ccccc3)c3cc(N4CCCC(C)C4)c(F)cc3c2=O)c1 (stereo not given),< 1
15,CC1=C(C(=O)Nc2nnc(-c3ccccc3)s2)C(c2[nH]ncc2Cl)N=C(Nc2nc3ccccc3o2)N1 (stereo not given),< 1
16,CC[C@@H](CO)NC(=O)[C@@H]1C=C2c3cccc4c3c(cn4C)C[C@H]2N(C)C1,> 52
17,CN(C(=O)CSc1nc2c(c(=O)[nH]1)CCCC2)c1ccccc1,> 49
18,COc1cc(CNCCO)cc(Cl)c1OCc1ccc(Cl)cc1Cl.Cl,40
19,CCOc1ccc(CCNC(=O)c2cc3ccccc3n2Cc2ccccn2)cc1OCC,< 1
20,Cc1ccc(S(=O)(=O)Nc2cnccc2C(=O)Nc2nc(-c3ccccc3Cl)cs2)cc1,0.005
21,COc1cc(-c2nc(Nc3ccc(F)c(F)c3)c3ccccc3n2)c(F)cn1,< 1
22,COc1ccc(C2=Nc3ccc(Br)cc3C(c3ccccc3)N2CC(=O)NN)cc1 (stereo not given),> 69
23,COc1cc(Nc2nc(-c3ccncc3)nc3ccccc23)ccc1N1CCN(C)CC1,> 63
24,CCN(CCN(C)C)C(=O)C1CCN(S(=O)(=O)c2c(C)noc2/C=C/c2ccccc2F)CC1,> 49
25,O=c1cc(-c2nc(Nc3ccc(F)c(F)c3)c3ccccc3n2)cc[nH]1,11.9

row,SMILES,solubility kinetic [µg/mL]
1,CC(C)CCNC(=O)[C@H](CC(C)C)NC(=O)[C@H]1O[C@@H]1C(=O)O,33
2,O=[N+]([O-])c1ccc(CNc2ccc([S+](=O)([O-])Nc3nccs3)cc2)c(O)c1,> 60
3,NC1(c2ccc(NC(=O)c3ccnc(-c4cc(C(=O)O)ccn4)c3)cc2)CC1,2.79
4,O=[S+]([O-])(Nc1nccs1)c1ccc(NCc2ccc(Cl)c(Cl)c2)cc1,< 1
5,O=[S+]([O-])(Nc1ccc(-c2ccccc2)cc1)c1ccc(NCc2ccc(Cl)cc2O)cc1,< 1
6,COc1ccc(CN2C(=O)[C@@H]3C[C@@H](CN3Cc3cccs3)Oc3ccccc32)cc1,2.52
7,COc1ccc(-n2nc(C3CCN(C(=O)C4CC4)CC3)[nH]c2=O)cc1,> 51
8,CCCCCCC.CN1C(=O)CN=C(c2ccc[nH]2)c2cc(Cl)ccc21,> 40
9,Cc1ccc(S(=O)(=O)Nc2ccccc2C(=O)Nc2ccc(-c3ccccc3)nc2)cc1,< 1
10,Cc1sc(NC(=O)Cc2ccc3c(c2)OCO3)nc1-c1ccc2c(c1)CCN2C(=O)C1CCCCC1,< 1
11,Nc1nc2c(s1)C(c1ccc(F)cc1F)CC(=O)N2 (stereo not given),23.2
12,Cc1ccc(S(=O)(=O)Nc2cnccc2C(=O)Nc2nc(-c3ccc(Cl)c(Cl)c3)cs2)cc1,0.578
13,FC1(F)CCN(c2nc(-c3ccncc3)nc3ccccc23)CC1,< 1
14,Cc1ccc(-n2nc3c(=O)n(CCCC(=O)NCc4ccc(F)cc4)nc(C)c3c2C)cc1,5.86
15,O=C(CNC12CC3CC(CC(C3)C1)C2)c1ccc(Cl)cc1,34.6
16,CC[C@@]1(O)C(=O)OCc2c1cc1n(c2=O)Cc2c-1nc1ccccc1c2CCNC(C)C,> 6
17,O=C1CCCC2=C1C(c1[nH]ncc1Cl)N=C(Nc1nc3cc([S+](=O)([O-])N4CCOCC4)ccc3o1)N2 (stereo not given),> 78
18,CCOC(=O)c1c[nH]c2c3c(ccc2c1=O)CCCC3,34
19,CC(=O)c1ccc(-c2csc(N3CCC(C(N)=O)CC3)n2)cc1,6.11
20,Fc1ccc(-c2ccc(Nc3nc(-c4ccncc4)nc4ccccc34)cc2F)cc1,< 1
21,CCOc1ccc(CCNC(=O)c2ccc(C(=O)c3ccccc3)cc2)cc1OCC,< 1
22,O=c1c2c([nH]c3ccc(Br)cc13)CCCC2,4.86
23,O=C(NCCc1nc2ccccc2n1CCO)C1CCCCC1,> 47
24,CCOC(=O)C1CCN(c2ncnc3c2c(-c2ccccc2)cn3-c2ccccc2)CC1,< 1
25,Oc1c(C(Nc2nccs2)c2ccc(C(F)(F)F)cc2)ccc2cccnc12 (stereo not given),< 1
